Results as given in patent US9957271B2, “Substituted bicyclic aza-heterocycles and analogues as sirtuin modulators” (GlaxoSmithKline, LLC, priority 2012, dated 2018).

Tests used:
[1] = target: T1, SIRT1 (Homo sapiens, UniProt Q96EB6); assay: TAMRA based mass spectrometry assay of SIRT1 activity; format: biochemical; details: for Emax: read-out: TAMRA % Fold Act
T1 sequence (Q96EB6 1-747): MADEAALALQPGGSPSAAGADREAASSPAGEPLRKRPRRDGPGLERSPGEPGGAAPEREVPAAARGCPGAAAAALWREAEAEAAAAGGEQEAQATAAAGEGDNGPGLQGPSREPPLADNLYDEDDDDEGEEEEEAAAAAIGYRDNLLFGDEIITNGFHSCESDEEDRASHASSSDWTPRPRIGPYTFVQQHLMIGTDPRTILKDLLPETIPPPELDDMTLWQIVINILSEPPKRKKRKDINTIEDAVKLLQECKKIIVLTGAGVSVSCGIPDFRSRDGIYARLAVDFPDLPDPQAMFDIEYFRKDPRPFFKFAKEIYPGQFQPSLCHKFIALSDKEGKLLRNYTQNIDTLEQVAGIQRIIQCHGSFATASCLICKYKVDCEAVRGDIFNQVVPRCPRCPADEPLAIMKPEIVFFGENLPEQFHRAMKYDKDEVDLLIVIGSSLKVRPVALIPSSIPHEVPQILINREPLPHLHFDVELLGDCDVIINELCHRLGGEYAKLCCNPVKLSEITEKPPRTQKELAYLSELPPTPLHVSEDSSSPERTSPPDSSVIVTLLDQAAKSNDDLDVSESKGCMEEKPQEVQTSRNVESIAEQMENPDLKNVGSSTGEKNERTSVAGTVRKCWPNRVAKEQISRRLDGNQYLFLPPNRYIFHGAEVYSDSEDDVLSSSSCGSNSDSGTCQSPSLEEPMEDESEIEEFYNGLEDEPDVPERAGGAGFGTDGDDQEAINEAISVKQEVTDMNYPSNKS
In short: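 Recombinant N-terminal His-tagged human SIRT1 (10 nM, E. coli) incubated 25 min at 25 °C with 0.5 μM 5TMR-labelled p53-derived acetyl-peptide and 120 μM βNAD+ in Tris-acetate pH 8 buffer with DTT and 0.05% BSA, compound at varying concentrations. Stopped with formic acid; deacetylated peptide or OAADPR measured by mass spectrometry relative to DMSO controls.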

[2] = target: T1, SIRT1; assay: Trp mass spectrometry assay of SIRT1 activity; format: biochemical; details: for Emax: read-out: Trp % Fold Act
In short: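 His-tagged SIRT1 expressed in E. coli BL21(DE3), 10 nM, incubated 25 min at 25° C. with 0.5 μM Ac-RHKK(Ac)W-NH2 peptide and 120 μM βNAD+ in 50 mM HEPES pH 7.5, […], 1 mM DTT, 0.05% BSA; formic acid stop. OAADPR or deacetylated peptide measured by mass spectrometry; EC1.5 and percent maximum activation versus DMSO control.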

[3] = concentration of test compound giving 150% activation of SIRT1, TAMRA peptide substrate
[4] = percent maximum fold activation of SIRT1, TAMRA peptide substrate
[5] = concentration of test compound giving 150% activation of SIRT1, Trp peptide substrate
[6] = percent maximum fold activation of SIRT1, Trp peptide substrate
[7] = TAMRA peptide substrate, concentration giving 150% activation of SIRT1
[8] = TAMRA peptide substrate, percent maximum fold activation
[9] = Trp peptide substrate, concentration giving 150% activation of SIRT1
[10] = Trp peptide substrate, percent maximum fold activation
[11] = TAMRA assay, concentration giving 150% activation of SIRT1
[12] = TAMRA assay, percent maximum fold activation
[13] = Trp assay, concentration giving 150% activation of SIRT1
[14] = Trp assay, percent maximum fold activation

Compound | TAMRA EC1.5 (μM) [1, 11] | Emax [1, 12] [%] | Trp EC1.5 (μM) [2, 13] | Emax [2, 14] [%] | further results
O=C(Nc1ccccn1)c1cnc2ccc(-c3cccc(OC(F)(F)F)c3)nn12 [Compound 8] | – | – | – | – | TAMRA EC1.5 (μM) [1, 3]: B (EC1.5 1-25 μM); Emax [1, 4]: < 350%; Trp EC1.5 (μM) [2, 5]: B (EC1.5 1-25 μM); Emax [2, 6]: < 350%
Cc1cc(-c2ccccc2C(F)(F)F)nn2c(NC(=O)c3cccc(N4CCOCC4)n3)cnc12 [Compound 425] | – | – | – | – | TAMRA EC1.5 [1, 7]: A (EC1.5<1 μM); Emax [1, 8]: ≥ 350%; Trp EC1.5 [2, 9]: A (EC1.5<1 μM); Emax [2, 10]: ≥ 350%
O=C(Nc1cccc(CN2CCOCC2)n1)c1cnc2ccc(-c3ccccc3Cl)nn12 [Compound 116] | – | – | – | – | TAMRA EC1.5 (μM) [1, 3]: A (EC1.5<1 μM); Emax [1, 4]: ≥ 350%; Trp EC1.5 (μM) [2, 5]: C (EC1.5>25 μM); Emax [2, 6]: < 350%
Cc1cccc(C(=O)Nc2cnc3ccc(N4CC[C@H](F)C4)nn23)n1 [Compound 565, (S)-N-(6-(3-fluoropyrrolidin-1-yl)imidazo[1,2-b]pyridazin-3-yl)-6-methylpicolinamide] | – | – | – | – | TAMRA EC1.5 [1, 7]: B (EC1.5 1-25 μM); Emax [1, 8]: ≥ 350%; Trp EC1.5 [2, 9]: B (EC1.5 1-25 μM); Emax [2, 10]: < 350%
O=C(Nc1cnc(OCC(O)CO)cn1)c1cnc2ccc(-c3ccccc3C(F)(F)F)nn12 (centres unmarked) [Compound 297] | A (EC1.5<1 μM) | ≥ 350 | B (EC1.5 1-25 μM) | < 350 | –
Cc1nc2ccc(-c3ccccc3C(F)(F)F)nn2c1NC(=O)c1ccncn1 [Compound 377] | B (EC1.5 1-25 μM) | < 350 | C (EC1.5>25 μM) | < 350 | –
O=C(Nc1cccc(CN2CCOCC2)n1)c1cnn2ccc(-c3ccccc3C(F)(F)F)nc12 [Compound 269] | A (EC1.5<1 μM) | ≥ 350 | B (EC1.5 1-25 μM) | ≥ 350 | –
Cc1cc(-c2ccccc2C(F)(F)F)nn2c(C(=O)Nc3ccnc(O[C@@H]4CCOC4)n3)cnc12 [Compound 598] | A (EC1.5<1 μM) | ≥ 350 | A (EC1.5<1 μM) | ≥ 350 | –
Cc1ccncc1NC(=O)c1cnn2ccc(-c3ccccc3C(F)(F)F)nc12 [Compound 640] | B (EC1.5 1-25 μM) | < 350 | B (EC1.5 1-25 μM) | < 350 | –
Cc1csc(NC(=O)c2cnc3ccc(-c4ccccc4C(F)(F)F)nn23)n1 [Compound 152] | – | – | – | – | TAMRA EC1.5 (μM) [1, 3]: A (EC1.5<1 μM); Emax [1, 4]: ≥ 350%; Trp EC1.5 (μM) [2, 5]: A (EC1.5<1 μM); Emax [2, 6]: ≥ 350%
Cc1ccc(NC(=O)c2cnc3ccc(-c4ccccc4C(F)(F)F)nn23)cn1 [Compound 98] | – | – | – | – | TAMRA EC1.5 (μM) [1, 3]: B (EC1.5 1-25 μM); Emax [1, 4]: ≥ 350%; Trp EC1.5 (μM) [2, 5]: B (EC1.5 1-25 μM); Emax [2, 6]: ≥ 350%
Cc1cnc(C(=O)Nc2c(C)nc3ccc(-c4ccccc4C(F)(F)F)nn23)s1 [Compound 381] | B (EC1.5 1-25 μM) | ≥ 350 | C (EC1.5>25 μM) | < 350 | –
Cc1cc(C)nc(NC(=O)c2cnc3ccc(-c4ccccc4C(F)(F)F)nn23)c1 [Compound 101] | – | – | – | – | TAMRA EC1.5 (μM) [1, 3]: A (EC1.5<1 μM); Emax [1, 4]: ≥ 350%; Trp EC1.5 (μM) [2, 5]: B (EC1.5 1-25 μM); Emax [2, 6]: ≥ 350%
Cc1cnc(NC(=O)c2cnn3ccc(-c4ccccc4OC(F)(F)F)nc23)s1 [Compound 603] | B (EC1.5 1-25 μM) | ≥ 350 | B (EC1.5 1-25 μM) | < 350 | –
Cc1nc(C(=O)Nc2cnc3ccc(-c4ccccc4OC(F)(F)F)nn23)cs1 [Compound 317] | A (EC1.5<1 μM) | ≥ 350 | C (EC1.5>25 μM) | < 350 | –
O=C(Nc1cccc(N2CCOCC2)n1)c1cnc2ccc(N3CCC(F)(F)C3)nn12 [Compound 489] | – | – | – | – | TAMRA EC1.5 [1, 7]: B (EC1.5 1-25 μM); Emax [1, 8]: < 350%; Trp EC1.5 [2, 9]: A (EC1.5<1 μM); Emax [2, 10]: ≥ 350%
O=C(Nc1ncn2ccc(-c3ccccc3C(F)(F)F)nc12)c1ccncn1 [Compound 484] | – | – | – | – | TAMRA EC1.5 [1, 7]: B (EC1.5 1-25 μM); Emax [1, 8]: < 350%; Trp EC1.5 [2, 9]: C (EC1.5>25 μM); Emax [2, 10]: < 350%
Cc1cc2ncc(C(=O)Nc3ccncc3)n2nc1-c1ccccc1C(F)(F)F [Compound 223, 7-methyl-N-(pyridin-4-yl)-6-(2-(trifluoromethyl)phenyl)imidazo[1,2-b]pyridazine-3-carboxamide] | B (EC1.5 1-25 μM) | ≥ 350 | B (EC1.5 1-25 μM) | ≥ 350 | –
Cc1ccnc(NC(=O)c2c(C)nn3ccc(-c4ccccc4C(F)(F)F)nc23)c1 [Compound 683] | A (EC1.5<1 μM) | ≥ 350 | A (EC1.5<1 μM) | ≥ 350 | –
Cc1cnc(NC(=O)c2cnc3ccc(-c4ccccc4OC[C@H](O)CO)nn23)s1 [Compound 820] | B (EC1.5 1-25 μM) | ≥ 350 | B (EC1.5 1-25 μM) | < 350 | –
O=C(Nc1cnc2ccc(-c3ccccc3OC(F)(F)F)nn12)c1cccc(OCC(O)CO)n1 (centres unmarked) [Compound 323] | A (EC1.5<1 μM) | ≥ 350 | A (EC1.5<1 μM) | ≥ 350 | –
Cc1cc(C)c(NC(=O)c2cnc3ccc(-c4ccccc4C(F)(F)F)nn23)cn1 [Compound 125] | – | – | – | – | TAMRA EC1.5 (μM) [1, 3]: B (EC1.5 1-25 μM); Emax [1, 4]: < 350%; Trp EC1.5 (μM) [2, 5]: B (EC1.5 1-25 μM); Emax [2, 6]: < 350%
Cc1cc(-c2ccccc2C(F)(F)F)nn2c(C(=O)Nc3nccc(N4CCCC4)n3)cnc12 [Compound 647] | A (EC1.5<1 μM) | ≥ 350 | A (EC1.5<1 μM) | ≥ 350 | –
CS(=O)(=O)c1cccc(-c2ccc3ncc(C(=O)Nc4nccs4)n3n2)c1 [Compound 11] | – | – | – | – | TAMRA EC1.5 (μM) [1, 3]: C (EC1.5>25 μM); Emax [1, 4]: < 350%; Trp EC1.5 (μM) [2, 5]: A (EC1.5<1 μM); Emax [2, 6]: ≥ 350%
Cc1ccc(NC(=O)c2c(C)nn3ccc(-c4ccccc4C(F)(F)F)nc23)c(C)n1 [Compound 698] | A (EC1.5<1 μM) | ≥ 350 | A (EC1.5<1 μM) | ≥ 350 | –
O=C(Nc1cnn2ccc(-c3ccccc3OC(F)(F)F)nc12)c1ncccc1F [Compound 754] | A (EC1.5<1 μM) | ≥ 350 | B (EC1.5 1-25 μM) | < 350 | –
